Reference: paper PMC11271627, “Molecular dynamics-guided optimization of BGM0504 enhances dual-target agonism for combating diabetes and obesity” (Scientific Reports, 2024)
Marks after values point to notes of the source that are not given here.

Experiments:
Human GLP-1R = biological target: T1, Human GLP-1R (Homo sapiens, UniProt P43220); assay: cAMP accumulation assay, GLP-1R; format: cell-based
T1 construct: expressed in transfected cells; host or cells: HEK293 cells
Method: These cells were then resuspended in 5 mL of the assay buffer, and their concentration was determined using a Vi-Cell Counter. […] Samples were subsequently added to the assay plate along with ECHO555. […] A volume of 10 µL of the cell suspension was added to the assay plate, with a density of 1000 cells/well for GLP-1R testing and 2000 cells/well for GIPR testing. The assay plate was then incubated in a 23°C incubator for 30 minutes. A starting concentration of 800 nM was used to prepare the cAMP standard curve, followed by a 4-fold 10-point serial dilution. These serially diluted cAMP standards were added to the assay plate at a volume of 10 µL/well. Subsequently, 10 µL of the cAMP detection solution was added to the assay plate, and the plate was incubated at room temperature for 1 hour, shielded from direct light. […] For data analysis, each data point’s cAMP level (nM) was calculated using the established cAMP standard curve. The percentage activity for each data point was determined using the formula: % Activity = (cAMP level of testing sample - average cAMP level of low control) / ([…] cAMP level of high control - average cAMP level of […] control) × 100%. Additionally, the ‘log(agonist) vs. response – variable slope’ model in GraphPad Prism 5.0 was used to fit the dose-response curve of each sample and calculate the EC50 value.

[1] = test system: STZ + HFD-induced C57BL/6 mice; assay: STZ + HFD-induced diabetes and NASH model in C57BL/6 mice; format: in vivo; settings: Mean±SEM; for Ballooning Degeneration score / Inflammatory Cell Infiltration score / NAS (NAFLD Activity Score) / Steatosis score: liver H&E staining; for Fibrosis percentage: liver Sirius red staining, fibrosis area of total section area; for ALT / AST: serum; for ALT: HFD 8 weeks
Method: Both the control and model groups received a subcutaneous injection of the drug vehicle, while only the model group was fed a high-fat diet (HFD). […] This experiment involved selecting 30 SPF grade C57BL/6 pregnant female mice provided by Shanghai Jihui Experimental Animal Breeding Co., Ltd. Newborn male mice underwent subcutaneous injection of STZ (streptozotocin) (100 μg each) within 48 hours after birth and were nursed by their mothers for 4 weeks. During this period, we measured the fasting blood glucose of the mice and selected 65 diabetic male mice with fasting blood glucose values greater than or equal to 12 mmol/L as experimental animals. These mice were fed a HFD for 8 weeks to establish the STZ + HFD-induced diabetes and Nonalcoholic Steatohepatitis (NASH) model in male C57BL/6 mice. Fasting blood sugar was detected after 1 week of HFD feeding in these NASH model mice. Based on fasting blood sugar and body weight, they were randomly divided into the model group, the Tirzepatide-0.15 mg/kg group, the BGM0504-0.05 mg/kg group, the BGM0504-0.15 mg/kg group, and the BGM0504-0.5 mg/kg group. The treatment groups received administration once every 3 days. Additionally, their mothers nursed 10 newborn male mice without STZ injection for 4 weeks and then fed a regular maintenance diet as a control group. After HFD feeding, body weights were measured, and the animals’ food intake was recorded every 3 days until the end of the experiment. Three days after the last dose, animal weights were measured. Following a 6-hour fasting period, all experimental animals were anesthetized with an intraperitoneal injection of sodium pentobarbital. Non-anticoagulated whole blood was collected through the orbital venous plexus, left at room temperature for 30 minutes, and centrifuged at 5000 rpm for 5 minutes. The serum was separated and stored at -80°C for biochemical testing. After thawing the frozen serum samples, serum ALT, AST, TG, TC, HDL-c and LDL-c levels […] were measured using a Hitachi 7060 automatic biochemical detector. Insulin content was determined using an enzyme-linked immunoassay kit. After the dissection procedure, the liver was perfused with pre-cooled saline and then obtained and photographed. Its weight was also measured. Subsequently, the liver was immersed in 10% formalin for fixation and divided into two parts. One part underwent pathological hematoxylin and eosin (H&E) staining. The H&E staining was conducted on paraffin sections of all animal livers following the KCI pathology staining standard operating procedure (SOP). These stained sections were panoramically scanned using a NanoZoomer Digital Pathology scanner. Different fields of view were selected for observation at various magnifications, and the liver lobes in the sections were scored. The other part was subjected to pathological Sirius red (SR) staining. Similarly, SR staining was performed on paraffin sections of the liver following the KCI pathology staining SOP. The stained sections were also panoramically scanned using the NanoZoomer Digital Pathology scanner. Subsequently, VIS7.0 software was utilized to analyze the liver fibrosis area in the panoramically examined SR-stained sections, and the percentage of the liver fibrosis area with the total section area was calculated.

[2] = 0.05 mg/kg once every 3 days, n=11
[3] = 0.15 mg/kg once every 3 days, n=13
[4] = 0.5 mg/kg once every 3 days, n=13

T1 sequence (P43220 24-463): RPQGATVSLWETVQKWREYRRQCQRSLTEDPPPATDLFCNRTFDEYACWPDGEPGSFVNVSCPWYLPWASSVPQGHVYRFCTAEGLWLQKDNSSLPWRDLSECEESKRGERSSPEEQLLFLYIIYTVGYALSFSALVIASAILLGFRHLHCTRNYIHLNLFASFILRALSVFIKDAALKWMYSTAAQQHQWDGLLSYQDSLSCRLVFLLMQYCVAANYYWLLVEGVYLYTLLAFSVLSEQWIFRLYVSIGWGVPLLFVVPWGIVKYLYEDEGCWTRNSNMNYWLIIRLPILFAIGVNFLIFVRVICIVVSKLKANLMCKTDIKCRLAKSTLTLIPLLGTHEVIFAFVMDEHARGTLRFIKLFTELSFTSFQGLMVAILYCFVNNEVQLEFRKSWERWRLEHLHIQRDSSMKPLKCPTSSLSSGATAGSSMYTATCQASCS

For `CC[C@H](C)[C@H](NC(=O)[C@H](CC(C)C)NC(=O)[C@H](Cc1c[nH]c2ccccc12)NC(=O)[C@H](CCC(N)=O)NC(=O)[C@@H](NC(=O)[C@H](Cc1ccccc1)NC(=O)[C@H](C)NC(=O)[C@H](CCCCN)NC(=O)[C@H](CCC(N)=O)NC(=O)[C@H](C)NC(=O)[C@@H](NC(=O)[C@H](CCCCN)NC(=O)[C@H](CC(=O)O)NC(=O)[C@H](CC(C)C)NC(=O)C(C)(C)NC(=O)[C@@H](NC(=O)[C@H](CO)NC(=O)[C@H](Cc1ccc(O)cc1)NC(=O)[C@H](CC(=O)O)NC(=O)[C@H](CO)NC(=O)[C@@H](NC(=O)[C@H](Cc1ccccc1)NC(=O)[C@@H](NC(=O)CNC(=O)[C@H](CCC(=O)O)NC(=O)C(C)(C)NC(=O)[C@@H](N)Cc1ccc(O)cc1)[C@@H](C)O)[C@@H](C)O)[C@@H](C)CC)[C@@H](C)CC)C(C)C)C(=O)N[C@@H](C)C(=O)NCC(=O)NCC(=O)N1CCC[C@H]1C(=O)N[C@@H](CO)C(=O)N[C@@H](CO)C(=O)NCC(=O)N[C@@H](C)C(=O)N1CCC[C@H]1C(=O)N1CCC[C@H]1C(=O)N1CCC[C@H]1C(=O)N[C@@H](CO)C(=O)N[C@@H](CCCCNC(=O)COCCOCCOCCNC(=O)COCCOCCOCCNC(=O)CC[C@H](NC(=O)CCCCCCCCCCCCCCCCCCC(=O)O)C(=O)O)C(N)=O` [BGM0504], the EC50 (Human GLP-1R; HEK293 cells with high expression of GLP-1 receptor, 1000 cells/well, 30 min 23°C, geometric mean ± SEM, n = 3) was 0.031 nM, the Emax (Human GLP-1R; HEK293 cells, relative to 10 nM GLP-1(7–37) high control, arithmetic mean ± SEM) was 92.7 ± 7.6% and the HDL-c [1, 2] was 2.30 ± 0.09 mmol/L. The LDL-c [1, 2] was 0.56±0.03^b mmol/L, the TC [1, 2] was 3.81±0.15^c mmol/L and the TG [1, 2] was 1.09±0.20^b mmol/L. For the same compound, the HDL-c [1, 3] was 1.83 ± 0.22 mmol/L, the LDL-c [1, 3] was 0.65±0.10^c mmol/L and the TC [1, 3] was 3.25±0.12^c mmol/L. The TG [1, 3] was 0.84±0.12^b mmol/L, the HDL-c [1, 4] was 2.13 ± 0.13 mmol/L and the LDL-c [1, 4] was 0.62±0.03^c mmol/L. The TC [1, 4] was 3.53±0.09^c mmol/L, the TG [1, 4] was 0.88±0.14^b mmol/L and the “Ballooning Degeneration score” value ([1]; 0.05 mg/kg, n=11) was 0.00±0.00. The “Inflammatory Cell Infiltration score” value ([1]; 0.05 mg/kg, n=11) was 0.91±0.08^a, the “NAS (NAFLD Activity Score)” value ([1]; 0.05 mg/kg, n=11) was 1.42±0.14^a and the Steatosis score ([1]; 0.05 mg/kg, n=11) was 0.52±0.12^a. For the same compound, the “Ballooning Degeneration score” value ([1]; 0.15 mg/kg, n=13) was 0.00±0.00^a, the “Inflammatory Cell Infiltration score” value ([1]; 0.15 mg/kg, n=13) was 0.90±0.06^a and the “NAS (NAFLD Activity Score)” value ([1]; 0.15 mg/kg, n=13) was 1.36±0.15^a. For the same compound, the Steatosis score ([1]; 0.15 mg/kg, n=13) was 0.46±0.13^a, the “Ballooning Degeneration score” value ([1]; 0.5 mg/kg, n=13) was 0.00±0.00 and the “Inflammatory Cell Infiltration score” value ([1]; 0.5 mg/kg, n=13) was 1.03±0.05^a. The “NAS (NAFLD Activity Score)” value ([1]; 0.5 mg/kg, n=13) was 1.36±0.10^a, the Steatosis score ([1]; 0.5 mg/kg, n=13) was 0.33±0.08^a and the Fibrosis percentage ([1]; 0.05 mg/kg, n=11) was 1.11±0.05^a %. For the same compound, the Fibrosis percentage ([1]; 0.15 mg/kg, n=13) was 1.10±0.04^b %, the Fibrosis percentage ([1]; 0.5 mg/kg, n=13) was 1.07±0.05^c % and the ALT [1, 2] was 73.97±9.20 U/L. For the same compound, the AST [1, 2] was 155.44±10.85 U/L, the ALT [1, 3] was 67.58±7.73^a U/L and the AST [1, 3] was 152.48±6.56^a U/L. For the same compound, the ALT [1, 4] was 58.46±5.38^b U/L and the AST [1, 4] was 150.54±6.26^a U/L.
